Experimental data published in patent publication US20070265456A1, “Novel crystal forms of atorvastatin hemi-calcium and processes for their preparation as well as novel processes for preparing other forms” (priority 2006, published 2007).

Test: Stability testing against formation of the impurities atorvastatin-epoxy-dihydroxy (AED) and epoxydiketone on storage
Format: physicochemical
Parameters: key to ATV-epoxy-diketone: impurity content in % (w/w)
Method: As used herein, the term “stable” in reference to atorvastatin hemi-calcium Form VIII relates to the formation of […] 0.01% (w/w) of the impurity AED. The stability of Form VIII is measured by maintaining Form VIII at a temperature of about 40° C. at a relative humidity of about 75% for at least about 1 month, or at a temperature of about 25° C. at a relative humidity of about 60% for at least about 6 months. Stable atorvastatin hemi-calcium Form VIII is a Form VIII in which no more than about 0.01% (w/w) of the AED impurity is formed when maintained under the conditions specified above.
The atorvastatin hemi-calcium crystalline produced above was dried by two steps: In a vacuum dryer at about 40° C. by 3 cycles and after the LOD<5% was reached the drying was continued in a fluid bed dryer at about 50° C. The dry material was milled and micronized.
The dried, milled, atorvastatin hemi-calcium crystalline was tested for stability against the formation of two potential impurities: atorvastatin-epoxy-dihydroxy (AED) and epoxydiketone.

[1] = 0 (5 m at storage) (Test Sample B)
[2] = 1 m/25° C./60% RH (Test Sample E)
[3] = 1 m/40° C./75% RH (Test Sample I)
[4] = 2 m/25° C./60% RH (Test Sample F)
[5] = 2 m/40° C./75% RH (Test Sample J)
[6] = 3 m/25° C./60% RH (Test Sample G)
[7] = 3 m/40° C./75% RH (Test Sample K)
[8] = 6 m/25° C./60% RH (Test Sample H)
[9] = 6 m/40° C./75% RH (Test Sample L)

- ATV-epoxy-dihydroxy (AED) [1]: < 0.01 % (w/w)
- ATV-epoxy-diketone [1]: <0.01
- ATV-epoxy-dihydroxy (AED) [2]: < 0.01 % (w/w)
- ATV-epoxy-diketone [2]: <0.01
- ATV-epoxy-dihydroxy (AED) [3]: < 0.01 % (w/w)
- ATV-epoxy-diketone [3]: <0.05
- ATV-epoxy-dihydroxy (AED) [4]: < 0.01 % (w/w)
- ATV-epoxy-diketone [4]: <0.05
- ATV-epoxy-dihydroxy (AED) [5]: < 0.05 % (w/w)
- ATV-epoxy-diketone [5]: <0.05
- ATV-epoxy-dihydroxy (AED) (3 m/2-8° C. (Test Sample C)): < 0.01 % (w/w)
- ATV-epoxy-diketone (3 m/2-8° C. (Test Sample C)): <0.05
- ATV-epoxy-dihydroxy (AED) [6]: < 0.01 % (w/w)
- ATV-epoxy-diketone [6]: <0.05
- ATV-epoxy-dihydroxy (AED) [7]: < 0.05 % (w/w)
- ATV-epoxy-diketone [7]: 0.05
- ATV-epoxy-dihydroxy (AED) (6 m/2-8° C. (Test Sample D)): < 0.05 % (w/w)
- ATV-epoxy-diketone (6 m/2-8° C. (Test Sample D)): <0.05
- ATV-epoxy-dihydroxy (AED) [8]: < 0.01 % (w/w)
- ATV-epoxy-diketone [8]: <0.05
- ATV-epoxy-dihydroxy (AED) [9]: < 0.05 % (w/w)
- ATV-epoxy-diketone [9]: 0.05
- ATV-epoxy-dihydroxy (AED) (release (Test Sample A)): < 0.01 % (w/w)
- ATV-epoxy-diketone (release (Test Sample A)): <0.01
SMILES: CC(C)c1c(C(=O)Nc2ccccc2)c(-c2ccccc2)c(-c2ccc(F)cc2)n1CC[C@@H](O)C[C@@H](O)CC(=O)O (relative stereo) [atorvastatin hemi-calcium crystalline, atorvastatin hemi-calcium]
